{"source": "patent US20190211317A1", "about": "“PEPTIDES AND NANOPARTICLES FOR INTRACELLULAR DELIVERY OF GENOME-EDITING MOLECULES” (Aadigen, LLC, priority 2016, published 2019)", "key": {"[1]": {"assay": "CPP/CAS9 and CPP/CAS9:gRNA particle size, polydispersity, zeta potential (Zetasizer 4)", "assay_type": "physicochemical", "procedure": "The CPP/CAS9 and CPP/CAS9/sgRNA particles were further characterized; the mean size, polydispersity and zeta potential were measured with Zetasizer 4 apparatus (Malvern Ltd). […] The mean size and the polydispersity of the CCP/CAS9 and CCP/CAS9:gRNA complexes were determined at 25° C. for 3 min per measurement and zeta potential was measured with Zetasizer 4 apparatus (Malvern Ltd)."}, "[2]": {"test_system": "EGFP reporter gene in EGFP-U2OS, EGFP-HEK, EGFP-JURKAT cells", "assay": "EGFP reporter gene disruption from CPP delivery of CAS9:sgRNA (flow cytometry);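 for all read-outs here: cells carrying one integrated EGFP reporter received peptide-complexed CAS9 preloaded 1:1 with EGFP sgRNA, cultured 72 h, then EGFP level read by flow cytometry, lipofectamine 2000 and RNAiMAX as positive controls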", "assay_type": "cell-based, human", "conditions": "for reduction of EGFP-positive cells: EGFP-JURKAT; for decrease in EGFP expression: CAS9:gRNA 50 nM, CPP:cargo 20:1; for reduction of EGFP-expressing cells / loss of EGFP expression: JURKAT", "procedure": "Efficacy of CPP-mediated delivery was quantified using a well-established CAS9-induced gene disruption method (Fu et al, 2013, supra), by targeting a specific site in the exogenous EGFP gene reporter in three human cell lines expressing EGFP (GFP-U2OS, EGFP-HEK, EGFP-JURKAT).\nStock solutions of amphipathic peptides were prepared at 1 mg/mL in distilled water and sonicated for 10 min. CAS9 protein was preloaded with purified EGFP sgRNA at a molar ratio of 1:1 and incubated for 10 min prior to forming complexes with the peptides. Preloaded CAS9/gRNA complexes (10 nM, 25 nM, and 50 nM) were mixed with CPPs at 5:1, 10:1 and 20:1 molar ratios of CPP to cargo and incubated for 30 min at 37° C. prior to cell transfection.\nCell line containing a single integrated EGFP reporter gene (GFP-U2OS, EGFP-HEK and EGFP-JURKAT) were cultured in Dulbecco's Modified Eagle's Medium (DMEM), supplemented with 2 mM glutamine, 1% antibiotics (streptomycin 10,000 μg/mL, penicillin, 10,000 IU/mL) and 10% (w/v) foetal calf serum (FCS) at 37° C. in a humidified atmosphere containing 5% CO2. A total of 150,000 cells seeded in a 35 mm dish the day prior to transfection were grown to 50-60% confluence and overlaid with 200 μl of preformed complexes, incubated for 3-5 min, then 400 μl of DMEM was added. After 30 min incubation at 37° C., 1 mL of fresh DMEM containing 16% FCS was added to reach a final FCS concentration of 10%, without removing the overlay of CPP/CAS9-gRNA complexes. Cells were returned to the incubator for 72 hours.\nCAS9-induced double-strand break formation was analyzed using flow cytometry by monitoring level of EGFP expression. […] Both lipofectamine 2000 and RNAiMAX delivery methods were used as positive controls."}, "[3]": {"test_system": "EGFP-U2OS, EGFP-HEK, EGFP-JURKAT cells", "assay": "Toxicity of CPP/CAS9/gRNA complexes (MTT assay)", "assay_type": "cell-based", "conditions": "three cell lines; concentrations up to 100 nM; 24 h", "description": "The robust EGFP disruption observed in the three cell lines was found not to be the result of cellular toxicity. […] A total of 30,000 cells seeded in 24-well plates the day prior to transfection were incubated with increasing concentrations of CPP/CAS9/gRNA (complexed at a 10:1 or 20:1 molar ratio of CPP to preloaded CAS9/gRNA complex) ranging from 1 to 200 nM for 30 min prior to addition of medium to reach a final 10% concentration of FCS. Cytotoxic response was measured 24 hours later by colorimetric MTT assay (Sigma, Germany). For MTT assay, cell culture medium was removed and replaced with PBS containing 2.5 mg/ml MTT for 4 hours. Results correspond to the average of 3 separate experiments. […] Viability was reduced by less than 10% at 200 nM. In contrast, at […] for Lipofectamine 2000 or RNAiMAX, between 60-70% and 20-25% cell death was observed, depending on cell line. Moreover, both lipid methods appeared to be highly toxic on JURKAT cells, inducing 75% (lipofectamine 2000) or 45% (RNAiMAX) cell death."}, "[4]": {"test_system": "endogenous EMX1 gene in U2OS, JURKAT and K562 cells", "assay": "EMX1 gene editing from CPP delivery of CAS9/gRNA (T7E1 assay)", "assay_type": "cell-based, human", "description": "RNAiMAX delivery was used as a positive control as it was previously reported to show better results than Lipofectamine 2000 (Zuris et al., 2015, supra). […] Cells were returned to the incubator for 72 hours."}, "[5]": {"test_system": "endogenous EMX1 and exogenous EGFP reporter genes in GFP-U2OS, EGFP-JURKAT cells", "assay": "Delivery of multiple RGEN/gRNA complexes: EMX1 and EGFP editing", "assay_type": "cell-based, human", "description": "RNAiMAX delivery was used as positive control. Cells were treated as described previously and CAS9-induced NHEJ analyzed 72 hr after transfection. […] The deletion (indel) frequency in the EMX1 gene was quantified using the T7E1 assay and loss of EGFP expression was monitored by flow cytometry. Data for on-target mutations induced by RGEN/gRNA are reported as an average of 3 separate experiments."}, "[6]": {"test_system": "endogenous EMX1, AAVS and HPRT genes in U2OS and Human (H9) embryonic stem cells", "assay": "Delivery of multiple RGEN:gRNA complexes: EMX1, AAVS, HPRT editing in U2OS and H9 ES cells (T7E1)", "assay_type": "cell-based", "procedure": "(§1) RNAiMAX delivery method was used as a positive control.\n(§2) U2OS cells were treated as described previously. H9 embryonic stem cells were cultured in Dulbecco's modified Eagle's medium with 4 mM L-glutamine adjusted to contain 1.5 g/L sodium bicarbonate and 4.5 g/L glucose and supplemented with 0.1 mM 2-mercaptoethanol, 85%; and 15% ES-Cell Qualified fetal bovine serum. […] CAS9-induced double-strand break formation followed by repair through NHEJ was analyzed 72 hr after transfection by T7E1 assay and quantified using Fragment Analyzer System. The deletion (indel) frequencies in EMX1, AAVS and HPRT genes were quantified using T7E1 assay. Data for on-target mutations induced by RGEN:gRNA are reported as an average of 3 separate experiments."}, "[7]": {"test_system": "endogenous EMX1, AAVS and HPRT genes in Mouse (ESF-158) embryonic stem cells", "assay": "Delivery of multiple RGEN:gRNA complexes: EMX1, AAVS, HPRT editing in mouse ES cells (T7E1)", "assay_type": "cell-based", "procedure": "as §1, §2"}, "[8]": {"test_system": "endogenous hPD1 gene in JURKAT and K562 cells", "assay": "hPD1 gene editing in T cell lines (T7E1 assay)", "assay_type": "cell-based, human", "conditions": "CAS9/sgRNA 5 μg/10 μg", "description": "CAS9 protein was preloaded with purified sgRNA at a molar ratio of 1:1 and incubated for 10 min prior to forming complexes with peptides.\n5×10^6 cells were washed twice with DPBS by centrifuging at 800 rpm for 5 minutes and resuspended in 100 ^l transfection buffer, and then transferred into the electroporation cuvette. An optimized program selected for both high transfection and high efficiency on T cells was used. After electroporation, cells were resuspended in 500 ^l pre-warmed AIM-V medium containing 10% FBS and incubated at 37° C. in 5% CO2. The transfection efficiency was evaluated after 48 hr by flow cytometry or T7E1 assay.\nRNAiMAX delivery method was used as positive control. Cells were either resuspended in or overlaid with 100 μl of preformed complexes, incubated for 3-5 min, and then 300 μl of DMEM was added. […] The indel frequency in the hPD1 gene was quantified using the T7E1 assay."}, "[9]": {"test_system": "hPD1 gene in human T cells", "assay": "hPD1 gene editing in primary human T cells (T7E1 assay)", "assay_type": "cell-based", "procedure": "T cells were isolated from PBMCs (2 different donors) using anti-CD3/anti-CD28 antibodies bound to paramagnetic beads (Dynabeads ClinExVivo CD3/CD28, Invitrogen) at a ratio of 3:1 (beads:cells). The cells and beads were co-incubated for 2 hours at room temperature and CD3′ cell enrichment was performed using Dynal ClinExVIVO MPC magnet (Thermo Fisher). The anti-CD3/anti-CD28 paramagnetic beads were removed, washed and concentrated. Cells in the CD3′ fraction were resuspended in activation media at a concentration of 1×10^6 cells/ml with AIM-V medium (Thermo Fishers) supplemented with 10% fetal calf serum, 300 IU/ml IL2 and 50 ng/ml OKT3 (MuromonAB-CD3) for two days.\nCells were transfected by electroporation with CD-19 plasmid or gRNA/CAS9 (5 μg/10 μg) using a Nucleofector 2b (Lonza, Germany) with the Amaxa Human T cells Nucleofector Kit, VPA-1002 (Lonza, Germany). 5×10^6 cells were washed twice with DPBS by centrifuging at 800 rpm for 5 minutes and resuspended in 100 ^l transfection buffer, and then transferred into the electroporation cuvette. An optimized program selected for both high transfection and high efficiency on T cells was used. After electroporation, cells were resuspended in 500 ^l pre-warmed AIM-V medium containing 10% FBS and incubated at 37° C. in 5% CO2. The transfection efficiency was evaluated after 48 hr by flow cytometry or T7E1 assay.\nAs control, CAS9 loaded with gRNA targeting GFP was used.\nCells were returned to the incubator for 72 hours. CAS9-induced double-strand break followed by repair through non-homologous end joining (NHEJ) was analyzed by either the T7E1 assay or using the Genome Cleavage Detection kit (GCD Thermo Fisher) and quantified using Fragment Analyzer System. The indel frequency in the target gene was quantified using the T7E1 assay. The cultures were expanded and analyzed for viability and PD1 levels every 10 days. T cell expansion medium contained AIM V medium, supplemented with 5% heat-inactivated human AB Serum, 1% Gluta-Max, and 300 IU/mL IL-2."}}, "note": "Values joined by “and” are separate entries in the source; they are usually repeats but may differ in a detail not shown here. Equal values may be shown once. No end group written: not given here."}
{"molecule": "N=C(N)NCCC[C@H](NC(=O)[C@H](CCCNC(=N)N)NC(=O)[C@H](CCCCN)NC(=O)[C@H](CCCNC(=N)N)NC(=O)[C@@H]1CCCN1C(=O)[C@H](Cc1c[nH]c2ccccc12)NC(=O)[C@H](CCC(=O)O)NC(=O)[C@H](CCCNC(=N)N)NC(=O)[C@H](Cc1c[nH]c2ccccc12)NC(=O)[C@H](Cc1c[nH]c2ccccc12)NC(=O)[C@H](CCCNC(=N)N)NC(=O)[C@H](CCC(=O)O)NC(=O)[C@H](Cc1c[nH]c2ccccc12)NC(=O)[C@H](Cc1c[nH]c2ccccc12)NC(=O)[C@H](CCCCN)NC(=O)CCN)C(=O)O", "note": "[VEPEP-3b]", "values": [{"measurement": "PI", "setting": "[1]; Cas9:gRNA, molar ratio 10/1", "value": "0.35 ± 0.1"}, {"measurement": "Size", "setting": "[1]; Cas9:gRNA, molar ratio 10/1", "value": "38 ± 4", "unit": "nm"}, {"measurement": "zeta", "setting": "[1]; Cas9:gRNA, molar ratio 10/1", "value": "27.0 ± 4", "unit": "MV"}, {"measurement": "PI", "setting": "[1]; Cas9:gRNA, molar ratio 20/1", "value": "0.37 ± 0.1"}, {"measurement": "Size", "setting": "[1]; Cas9:gRNA, molar ratio 20/1", "value": "51 ± 5", "unit": "nm"}, {"measurement": "zeta", "setting": "[1]; Cas9:gRNA, molar ratio 20/1", "value": "25.3 ± 7", "unit": "MV"}, {"measurement": "Pt", "setting": "[1]; Cas9, molar ratio 10/1", "value": "0.33 ± 0.1"}, {"measurement": "zeta", "setting": "[1]; Cas9, molar ratio 10/1", "value": "21.0 ± 5", "unit": "mV"}, {"measurement": "Size", "setting": "[1]; Cas9, molar ratio 10/1, 0.9% NaCl", "value": "45 ± 5", "unit": "nm"}, {"measurement": "Pt", "setting": "[1]; Cas9, molar ratio 20/1", "value": "0.35 ± 0.1"}, {"measurement": "Size", "setting": "[1]; Cas9, molar ratio 20/1", "value": "52 ± 5", "unit": "nm"}, {"measurement": "zeta", "setting": "[1]; Cas9, molar ratio 20/1", "value": "17.0 ± 5", "unit": "mV"}, {"measurement": "formation of stable nanoparticles", "setting": "[1]; with CAS9 and CAS9:gRNA complex, molar ratio 10:1 or 20:1", "value": "able to form stable nanoparticles"}, {"measurement": "Mean diameter", "setting": "[1]; with CAS9 and CAS9:gRNA, molar ratio 10:1 or 20:1", "value": "about 50 nm"}, {"measurement": "reduction of EGFP-positive cells", "setting": "[2]", "value": 87, "unit": "%"}, {"measurement": "reduction of number of EGFP-expressing cells", "setting": "[2]; HEK, 1 nM CAS9:gRNA", "value": 71, "unit": "%"}, {"measurement": "decrease in EGFP expression", "setting": "[2]; HEK", "value": 93, "unit": "%"}, {"measurement": "reduction of EGFP-expressing cells / loss of EGFP expression", "setting": "[2]; 1 nM CAS9:gRNA", "value": 55, "unit": "%"}, {"measurement": "reduction of number of EGFP-expressing cells", "setting": "[2]; U2OS, 1 nM CAS9:gRNA", "value": 68, "unit": "%"}, {"measurement": "decrease in EGFP expression", "setting": "[2]; U2OS", "value": 92, "unit": "%"}, {"measurement": "toxicity", "setting": "[3]", "value": "no toxicity"}, {"measurement": "Mean indel Frequency ± S.E.M", "setting": "[4]; JURICAT, CAS9/sgRNA 25 nM", "value": "69% and 69 ± 8%"}, {"measurement": "Mean indel Frequency ± S.E.M", "setting": "[4]; JURKAT, CAS9/sgRNA 50 nM", "value": "71 ± 5", "unit": "%"}, {"measurement": "Mean indel Frequency ± S.E.M", "setting": "[4]; K562, CAS9/sgRNA 25 nM", "value": "79% and 79 ± 5%"}, {"measurement": "Mean indel Frequency ± S.E.M", "setting": "[4]; K562, CAS9/sgRNA 50 nM", "value": "81 ± 7", "unit": "%"}, {"measurement": "Mean indel Frequency ± S.E.M", "setting": "[4]; U2OS, CAS9/sgRNA 25 nM, 20:1", "value": "75% and 75 ± 7%"}, {"measurement": "Mean indel Frequency ± S.E.M", "setting": "[4]; U2OS, CAS9/sgRNA 50 nM", "value": "77 ± 5", "unit": "%"}, {"measurement": "Mean indel Frequency ± S.E.M", "setting": "[5]; JURKAT, EGFP", "value": "84 ± 7", "unit": "%"}, {"measurement": "Mean indel Frequency ± S.E.M", "setting": "[5]; JURKAT, EMX1", "value": "79 ± 7", "unit": "%"}, {"measurement": "Mean indel Frequency ± S.E.M", "setting": "[5]; U2OS, EGFP, 25 nM each complex", "value": "80 ± 5", "unit": "%"}, {"measurement": "Mean indel Frequency ± S.E.M", "setting": "[5]; U2OS, EMX1", "value": "82 ± 6", "unit": "%"}, {"measurement": "Mean indel Frequency ± S.E.M", "setting": "[6]; H9, AAVS", "value": "71 ± 7", "unit": "%"}, {"measurement": "Mean indel Frequency ± S.E.M", "setting": "[6]; H9, EMX1", "value": "67 ± 6", "unit": "%"}, {"measurement": "Mean indel Frequency ± S.E.M", "setting": "[6]; H9, HPRT", "value": "70 ± 4", "unit": "%"}, {"measurement": "Mean indel Frequency ± S.E.M", "setting": "[6]; U2OS, AAVS", "value": "75 ± 7", "unit": "%"}, {"measurement": "Mean indel Frequency ± S.E.M", "setting": "[6]; U2OS, EMX1, 20 nM each complex", "value": "82 ± 5", "unit": "%"}, {"measurement": "Mean indel Frequency ± S.E.M", "setting": "[6]; U2OS, HPRT", "value": "84 ± 6", "unit": "%"}, {"measurement": "Mean indel Frequency ± S.E.M", "setting": "[7]; AAVS", "value": "79 ± 5", "unit": "%"}, {"measurement": "Mean indel Frequency ± S.E.M", "setting": "[7]; EMX1", "value": "84 ± 6", "unit": "%"}, {"measurement": "Mean indel Frequency ± S.E.M", "setting": "[7]; HPRT", "value": "85 ± 7", "unit": "%"}]}
{"molecule": "GLWRALWRLLRSLWRLLWKV [CADY, reference compound]", "values": [{"measurement": "complex formation with CAS9", "setting": "[1]", "value": "did not form any complex"}, {"measurement": "PI", "setting": "[1]; Cas9:gRNA, molar ratio 20/1", "value": "0.6 and 0.6 ± 0.2"}, {"measurement": "Size", "setting": "[1]; Cas9:gRNA, molar ratio 20/1", "value": "350±20", "unit": "nm"}, {"measurement": "zeta", "setting": "[1]; Cas9:gRNA, molar ratio 20/1", "value": "45 ± 8", "unit": "MV"}, {"measurement": "formation of stable particles with preloaded CAS9:gRNA complex", "setting": "[1]; molar ratio 10:1", "value": "neither CADY nor VEPEP-9 formed stable particles"}, {"measurement": "reduction of EGFP-positive cells", "setting": "[2]", "value": 18, "unit": "%"}, {"measurement": "decrease in EGFP expression", "setting": "[2]; HEK", "value": 42, "unit": "%"}, {"measurement": "reduction of EGFP-expressing cells / loss of EGFP expression", "setting": "[2]; 1 nM CAS9:gRNA", "value": "no change in EGFP expression"}, {"measurement": "decrease in EGFP expression", "setting": "[2]; U2OS", "value": 33, "unit": "%"}, {"measurement": "loss of EGFP expression", "setting": "[2]; both cell lines (U2OS, HEK), 1 nM CAS9:gRNA", "value": "no change in EGFP expression"}, {"measurement": "Mean indel Frequency ± s.e.m", "setting": "[8]; JURKAT", "value": "12 ± 9", "unit": "%"}, {"measurement": "Mean indel Frequency ± s.e.m", "setting": "[8]; K562", "value": "15 ± 9", "unit": "%"}, {"measurement": "Mean indel Frequency ± s.e.m", "setting": "[9]; Donor 1, CAS9/sgRNA 2.5 μg/5 μg", "value": 0, "unit": "%"}, {"measurement": "Mean indel Frequency ± s.e.m", "setting": "[9]; Donor 1, CAS9/sgRNA 5 μg/10 μg", "value": 0, "unit": "%"}, {"measurement": "Mean indel Frequency ± s.e.m", "setting": "[9]; Donor 2, CAS9/sgRNA 2.5 μg/5 μg", "value": 0, "unit": "%"}, {"measurement": "Mean indel Frequency ± s.e.m", "setting": "[9]; Donor 2, CAS9/sgRNA 5 μg/10 μg", "value": 0, "unit": "%"}, {"measurement": "mean indel frequency of hPD1 gene", "setting": "[9]; T cells from the two donors, 5 μg/10 μg CAS9/gRNA", "value": "No editing"}]}
